{"source": "patent US20220000811A1", "about": "“COMPOSITION FOR PROMOTING HAIR GROWTH COMPRISING A GUANINE DERIVATIVE” (KOREA RESEARCH INSTITUTE OF BIOSCIENCE AND BIOTECHNOLOGY, priority 2019, published 2022)", "key": {"[1]": {"tested_on": "K15/β-catenin, Ki67/Shh, K15/PDK, Ki67/PDH populations", "test": "FACS analysis of single skin cells", "assay_type": "in vivo, mouse", "protocol": "During the hair telogen phase, the hair on the dorsal skin of 7-week-old C57BL/6 mice (Dae Han BioLink, Chungbuk, Republic of Korea) was depilated using an animal clipper and wax (Veet, Oxy Reckitt Benckiser, Seoul, Republic of Korea). From the next day, 200 μL of placebo (control), 1% IM, 1% minoxidil, or 1% metformin was applied daily to the depilated area using a sterile cotton swab. Images of each animal were captured daily, and the degree of darkness of the color on dorsal skin was quantified in the same area (1.6 cm×3 cm) using the Image J program. The mice were sacrificed, and skin tissues on days 0, 7, 14, and 20 were obtained. Half of the tissues were used for RNA isolation, and the other half were fixed with 4% paraformaldehyde overnight for histochemical analysis. After the mice were perfused with PBS to remove blood, the skin tissue was harvested and cut into small pieces. The tissue was digested with trypsin (Thermo Fisher Scientific) at 37° C. for 150 minutes, then filtered through a 75 μm nylon mesh, followed by filtering through a 30 μm mesh (BD Biosciences). Single cells were fixed, permeabilized, and blocked according to the immunostaining protocol. The cells were stained with specific antibodies (Table 1 above) and analyzed with BD Accuri™ C6 (BD Biosciences)"}, "[2]": {"tested_on": "human embryonic stem cells (hESCs)", "test": "Maintaining stemness of human embryonic stem cells in unconditioned medium, AP staining", "assay_type": "cell-based", "details": "for improvement of effect of maintaining stemness: hESCs in UM", "protocol": "Additionally, the effect of the compounds of the present invention on maintaining sternness of human embryonic stern cells (hESCs) was confirmed (FIG. 4). Specifically, when hESCs were cultured in an unconditioned medium (UM), the sternness was lost, and AP activity was weakened (FIG. 4a). […] In particular, when IM176OUT05 was treated at 10 nM and 100 nM concentrations, it was confirmed that the effect of maintaining the sternness was improved by 7.6 times and 8.2 times, respectively (FIG. 4b)."}, "[3]": {"tested_on": "C57BL/6 mice", "test": "Side effects observed during hair regeneration experiment", "assay_type": "in vivo, mouse", "details": "topical treatment during the experiment", "protocol": "(§1) During the hair telogen phase, the hair on the dorsal skin of 7-week-old C57BL/6 mice (Dae Han BioLink, Chungbuk, Republic of Korea) was depilated using an animal clipper and wax (Veet, Oxy Reckitt Benckiser, Seoul, Republic of Korea). From the next day, 200 μL of placebo (control), 1% IM, 1% minoxidil, or 1% metformin was applied daily to the depilated area using a sterile cotton swab. Images of each animal were captured daily, and the degree of darkness of the color on dorsal skin was quantified in the same area (1.6 cm×3 cm) using the Image J program. The mice were sacrificed, and skin tissues on days 0, 7, 14, and 20 were obtained. Half of the tissues were used for RNA isolation, and the other half were fixed with 4% paraformaldehyde overnight for histochemical analysis."}, "[4]": {"tested_on": "auricle", "test": "Auricle punch analysis (auricular tissue repair)", "assay_type": "in vivo, mouse", "details": "2 mm ear punch holes, daily topical application, indicated concentrations", "protocol": "For the auricular tissue repair analysis, three holes with a diameter of 2 mm were drilled in each ear using a punching instrument (Fine Science Tools, British Columbia, Canada). IM at the indicated concentration was applied daily with a sterile cotton swab. The hole area was measured with digital calipers (VWR, Radnor, Pa., USA)."}, "[5]": {"tested_on": "C57BL/6 mice", "test": "Hair regeneration model, darkness of dorsal skin and hair growth", "assay_type": "in vivo, mouse", "protocol": "as §1, with “analysis. It was confirmed whether the IM compound can promote hair growth without showing toxicity or other side effects through mouse experiments. In 7-week-old C57BL/6 mice, the telogen phase was motivated by hair removal, and various concentrations of IM were applied topically to the dorsal skin of the mice daily.” for “analysis.”"}, "[6]": {"tested_on": "human foreskin fibroblast (HFFs)", "test": "Reprogramming into iPSCs (OSKM) in human foreskin fibroblasts, AP staining", "assay_type": "cell-based", "protocol": "After 28 days, AP staining was performed (FIG. 3a), and the number of AP^+ colonies was quantified (FIG. 3b)."}, "[7]": {"tested_on": "hair follicles", "test": "Quantitative histomorphometric analysis of hair follicle cycle and number (H&E)", "assay_type": "in vivo, mouse", "protocol": "During the hair telogen phase, the hair on the dorsal skin of 7-week-old C57BL/6 mice (Dae Han BioLink, Chungbuk, Republic of Korea) was depilated using an animal clipper and wax (Veet, Oxy Reckitt Benckiser, Seoul, Republic of Korea). From the next day, 200 μL of placebo (control), 1% IM, 1% minoxidil, or 1% metformin was applied daily to the depilated area using a sterile cotton swab. Images of each animal were captured daily, and the degree of darkness of the color on dorsal skin was quantified in the same area (1.6 cm×3 cm) using the Image J program. The mice were sacrificed, and skin tissues on days 0, 7, 14, and 20 were obtained. Half of the tissues were used for RNA isolation, and the other half were fixed with 4% paraformaldehyde overnight for histochemical analysis. The tissues fixed in Example 1.1. were immersed in 30% sucrose, and then embedded in an OCT compound (Sakura Finetek USA Inc, Torrance, Calif., USA). Frozen fragments were obtained using a cryostat sectioning device (Leica, Wetzlar, Germany) and stained using hematoxylin (Sigma) and eosin (Sigma) (H&E), or each of the antibodies shown in Table 1 below. Immunohistochemical analysis was performed, and fluorescence images were taken with an Olympus microscope (Olympus) According to the guidelines for accurately classifying the hair cycle stages, the hair cycle was quantified by classifying individual hair follicles with H&E staining micrographs in the longitudinal section of each mouse (n>10). The percentage of the anagen phase of the hair was calculated for each group. Hair follicles in the same area (1300 μm width) were counted by H&E staining micrographs in the cross section of each mouse (n>10)."}}, "data": [{"compound": "Cc1ccccc1CCNC(=N)NC(=N)N", "note": "[IM176OUT05, N-1-(2-methyl)phenethylbiguanide]", "values": [{"measurement": "K15+/PDK+ population in single skin cells", "setting": "[1]; day 7, FACS", "result": 5.9, "unit": "%"}, {"measurement": "K15+/β-catenin+ population in single skin cells", "setting": "[1]; day 7, FACS", "result": 11.7, "unit": "%"}, {"measurement": "Ki67+/PDH+ population", "setting": "[1]; day 7, FACS", "result": 13.7, "unit": "%"}, {"measurement": "increase of K15+/β-catenin+ population compared to control", "setting": "[1]; day 7, FACS", "result": 3.7}, {"measurement": "increase of glycolytic stem cell population (K15+/PDK+) compared to control", "setting": "[1]; day 7, FACS", "result": "at least 6.6 times"}, {"measurement": "Ki67+/Shh+ population in single skin cells", "setting": "[1]; day 20, FACS", "result": 36.7, "unit": "%"}, {"measurement": "PDK+ cell population and Ki67+ cell population", "setting": "[1]; day 20, FACS", "result": "increased"}, {"measurement": "increase of Ki67+/Shh+ population compared to control", "setting": "[1]; day 20, FACS", "result": 2.7, "unit": "times"}, {"measurement": "separated populations of PDH+ cells and K15+ cells", "setting": "[1]; day 20, FACS", "result": "increased"}, {"measurement": "improvement of effect of maintaining stemness", "setting": "[2]; 10 nM", "result": 7.6, "unit": "times"}, {"measurement": "improvement of effect of maintaining stemness", "setting": "[2]; 100 nM", "result": 8.2, "unit": "times"}, {"measurement": "AP staining (stemness)", "setting": "[2]; hESCs in unconditioned medium, low dose", "result": "increase in AP staining"}, {"measurement": "side effects, including skin problems", "setting": "[3]", "result": "No side effects"}, {"measurement": "wound area of the auricle", "setting": "[4]", "result": "reduced the wound area of the auricle in a dose-dependent manner"}, {"measurement": "black pigmentation and hair growth", "setting": "[5]; 1% topical daily on dorsal skin, day 9", "result": "remarkably observed"}, {"measurement": "hair growth, male and female mice", "setting": "[5]; 1% topical daily, comparison with minoxidil", "result": "promoted hair growth in both male and female mice"}, {"measurement": "skin color compared to control or minoxidil-treated mice", "setting": "[5]; 1% topical daily, day 8", "result": "clearly darkened"}, {"measurement": "hair growth", "setting": "[5]; 1% topical daily, day 10", "result": "markedly promoted"}, {"measurement": "hair growth in female mice", "setting": "[5]; 1% topical daily, female mice", "result": "strong promoting effect"}, {"measurement": "effect compared to minoxidil, independent experiment", "setting": "[5]; female mice", "result": "excellent effect as compared to minoxidil"}, {"measurement": "enhancing reprogramming efficiency", "setting": "[6]; 10 nM, 100 nM, and 500 nM, 28 days", "result": "≥ 2.4", "unit": "times"}, {"measurement": "concentration with the most excellent reprogramming efficacy", "setting": "[6]; OSKM, after 28 days", "result": 10, "unit": "nM"}, {"measurement": "number of hair follicles compared to control", "setting": "[7]; day 7, cross section", "result": "significantly increased"}, {"measurement": "number of hair follicles compared to control", "setting": "[7]; day 20", "result": "significantly higher"}, {"measurement": "stage of most hair follicles", "setting": "[7]; day 20, longitudinal section", "result": "growth phases V and VI"}, {"measurement": "progression of the hair follicle cycle", "setting": "[7]; histomorphometry", "result": "stimulated the progression of the hair follicle cycle"}]}]}
